{"source": "patent US20170051149A1", "about": "“AZOARYLS AS REVERSIBLY MODULATABLE TUBULIN INHIBITORS” (ECOLE NORMALE SUPERIEURE DE LYON, priority 2014, published 2017)", "system": "HeLa cells", "assay": "MTT assay", "type": "cell-based", "details": "48 h", "excerpt": "The cytotoxic properties of I.1 were subsequently confirmed with another method, using the quantification of mitochondrial dehydrogenase activity of cells as determined by the level of 3-(4.5-dimethylthiazol-2-yl)-2.5-diphenyl tetrazolium bromide (MTT) reduction to its purple formazan, according to standard protocol^[30]. […] Cells were kept in the dark, or exposed to a pulsed toxic regime of 390 nm only, or exposed to a strong rescue protocol with pulses of 390 nm then 505 nm light. Pulses of light were applied every 30 s; 390 nm light pulses lasted 150 ms every 30 s, while the 505 nm light pulses were applied for 500 ms; in the strong rescue regime, the 505 nm pulse was synchronised so that it began immediately after the 390 nm pulse ended.\nCellular viability was measured 48 h later, namely, cells were incubated with MTT for three hours and after dissolution of the formazan crystals with DMSO, absorbance at 550 nm was measured using a FLUOstar Omega microplate reader. Results are shown in Table 5 below and are expressed as a fold growth relative to the control growth of the cells treated only with a co-solvent (0.5% MeCN) and represent mean and standard deviation of quadruplicates of the optical density values, which are proportional to the cell number."}
{"smiles": "COc1ccc(N=Nc2cc(OC)c(OC)c(OC)c2)cc1O", "note": "[I.1, 2-methoxy-5-((3,4,5-trimethoxyphenyl)diazenyl)phenol]", "values": [{"measurement": "mean fold growth", "setting": "10 nM, 390 nm (150 ms every 30 s)", "value": 0.95, "unit": "fold"}, {"measurement": "mean fold growth", "setting": "10 nM, Dark", "value": 0.93, "unit": "fold"}, {"measurement": "mean fold growth", "setting": "20 nM, 390 nm (150 ms every 30 s)", "value": 0.96, "unit": "fold"}, {"measurement": "mean fold growth", "setting": "20 nM, Dark", "value": 1.02, "unit": "fold"}, {"measurement": "mean fold growth", "setting": "50 nM, 390 nm (150 ms every 30 s)", "value": 0.96, "unit": "fold"}, {"measurement": "mean fold growth", "setting": "50 nM, Dark", "value": 1.01, "unit": "fold"}, {"measurement": "mean fold growth", "setting": "100 nM, 390 nm (150 ms every 30 s)", "value": 0.93, "unit": "fold"}, {"measurement": "mean fold growth", "setting": "100 nM, dark", "value": 1.01, "unit": "fold"}, {"measurement": "mean fold growth", "setting": "400 nM, 390 nm (150 ms every 30 s)", "value": 0.28, "unit": "fold"}, {"measurement": "mean fold growth", "setting": "400 nM, dark", "value": 1.00, "unit": "fold"}, {"measurement": "mean fold growth", "setting": "400 nM, rescue: 390 nm (150 ms) then 505 nm (500 ms) every 30 s", "value": 0.46, "unit": "fold"}, {"measurement": "mean fold growth", "setting": "600 nM, 390 nm (150 ms every 30 s)", "value": 0.21, "unit": "fold"}, {"measurement": "mean fold growth", "setting": "600 nM, dark", "value": 1.05, "unit": "fold"}, {"measurement": "mean fold growth", "setting": "800 nM, 390 nm (150 ms every 30 s)", "value": 0.17, "unit": "fold"}, {"measurement": "mean fold growth", "setting": "800 nM, Dark", "value": 0.98, "unit": "fold"}, {"measurement": "mean fold growth", "setting": "1 μM, 390 nm (150 ms every 30 s)", "value": 0.18, "unit": "fold"}, {"measurement": "mean fold growth", "setting": "1 μM, dark", "value": 0.93, "unit": "fold"}, {"measurement": "mean fold growth", "setting": "2 μM, 390 nm (150 ms every 30 s)", "value": 0.21, "unit": "fold"}, {"measurement": "mean fold growth", "setting": "2 μM, Dark", "value": 0.98, "unit": "fold"}, {"measurement": "toxicity", "setting": "in the dark, 10 nM-2 μM", "value": "no toxicity"}, {"measurement": "concentration inducing severe cytotoxicity", "setting": "upon exposure to the light (390 nm)", "value": "≥ 400", "unit": "nM"}]}
